The values that follow come from ChEMBL document CHEMBL1129167, “Examination of the role of the duocarmycin SA methoxy substituents: Identification of the minimum, fully potent DNA binding subunit” (Bioorg Med Chem Lett, 1996).

Tested on in the first experiment: not listed separately
The experiment can be described thus: Compound was evaluated for relative DNA alkylation efficiency. The class given is functional.
In turn, `COC(=O)c1cc2c([nH]1)C(=O)C=C1N(C(=O)c3cc4cc(OC)ccc4[nH]3)C[C@H]3C[C@]123` (stereo in doubt; (+)-5) [listing 1 of 2 here] had a krel of 1. With `COC(=O)c1cc2c([nH]1)C(=O)C=C1N(C(=O)c3cc4ccc(OC)cc4[nH]3)C[C@H]3C[C@]123` (stereo in doubt; (+)-6) [listing 1 of 2 here], the krel came out at 0.2. `COC(=O)c1cc2c([nH]1)C(=O)C=C1N(C(=O)c3cc4ccccc4[nH]3)C[C@H]3C[C@]123` (stereo in doubt; (+)-4) [listing 1 of 2 here] displayed a krel of 0.05.

The compound `COC(=O)c1cc2c([nH]1)C(=O)C=C1N(C(=O)c3cc4cc(OC)c(OC)c(OC)c4[nH]3)C[C@H]3C[C@]123` [DUOCARMYCIN] returned a krel of 1. On to `COC(=O)c1cc2c([nH]1)C(=O)C=C1N(C(=O)c3cc4cccc(OC)c4[nH]3)C[C@H]3C[C@]123` (stereo in doubt; (+)-7) [listing 1 of 2 here], for which the krel is 0.1.

Another experiment has as its system L1210. The experiment can be described thus: In vitro cytotoxicity in L1210 cell lines. The class given is functional, cell-based, Mus musculus.
The compound `COC(=O)c1cc2c([nH]1)C(=O)C=C1N(C(=O)c3cc4ccccc4[nH]3)C[C@H]3C[C@]123` (stereo in doubt; (-)-4) showed an IC50 of 1700 pM.

Compound `COC(=O)c1cc2c([nH]1)C(=O)C=C1N(C(=O)c3cc4ccccc4[nH]3)C[C@H]3C[C@]123` (stereo in doubt; (+)-4) [listing 2 of 2 here] yielded an IC50 of 65 pM. Regarding `COC(=O)c1cc2c([nH]1)C(=O)C=C1N(C(=O)c3cc4cccc(OC)c4[nH]3)C[C@H]3C[C@]123` (stereo in doubt; (-)-7), the midpoint of inhibition, the IC50, lay at 1800 pM. `COC(=O)c1cc2c([nH]1)C(=O)C=C1N(C(=O)c3cc4cc(OC)ccc4[nH]3)C[C@H]3C[C@]123` (stereo in doubt; (+)-5) [listing 2 of 2 here] came in with an IC50 of 10 pM. With `COC(=O)c1cc2c([nH]1)C(=O)C=C1N(C(=O)c3cc4cc(OC)c(OC)c(OC)c4[nH]3)C[C@H]3C[C@]123` [DUOCARMYCIN], the half-maximal inhibitory concentration (IC50) is 100 pM. In turn, `COC(=O)c1cc2c([nH]1)C(=O)C=C1N(C(=O)c3cc4ccc(OC)cc4[nH]3)C[C@H]3C[C@]123` (stereo in doubt; (+)-6) [listing 2 of 2 here] displayed an IC50 of 25 pM.

`COC(=O)c1cc2c([nH]1)C(=O)C=C1N(C(=O)c3cc4cc(OC)ccc4[nH]3)C[C@H]3C[C@]123` (stereo in doubt; (-)-5): the IC50 turned out to be 300 pM. Turning to `COC(=O)c1cc2c([nH]1)C(=O)C=C1N(C(=O)c3cc4ccc(OC)cc4[nH]3)C[C@H]3C[C@]123` (stereo in doubt; (-)-6), the IC50 was 1300 pM. The compound `COC(=O)c1cc2c([nH]1)C(=O)C=C1N(C(=O)c3cc4cccc(OC)c4[nH]3)C[C@H]3C[C@]123` (stereo in doubt; (+)-7) [listing 2 of 2 here] came in with an IC50 of 60 pM.
